US5726316A, “Pharmaceutical compositions for prevention and treatment of central nervous system disorders” (priority 1997, dated 1998)

Columns and labels:
[1] = target: nicotinic receptors (L-[3H]nicotine binding, rat brain membrane preparations); parameters: species or system rat (Sprague-Dawley); conditions: calculated from IC50 (Cheng et al.)
Description: Rats (Sprague-Dawley) were maintained on a 12 hour light/dark cycle and were allowed free access to water and food supplied by Wayne Lab Blox, Madison, Wis. Animals used in the present studies weighted 200 to 250 g. Brain membrane preparations were obtained from brain tissue of either males or females.
Rats were killed by decapitation following anesthesia with 70% CO2. Brains were removed and placed on an ice-cold platform. […] The resulting homogenate was centrifuged at 18,000×g for 20 min. and the resulting pellet was resuspended in 20 volumes of water. After 60 min. incubation at 4° C., a new pellet was collected by centrifugation at 18,000×g for 20 min. After resuspension in 10 volumes of buffer, a new final pellet was again collected by centrifugation at 18,000×g for 20 min. Prior to each centrifugation step, the suspension was incubated at 37° C. for 5 min. to promote hydrolysis of endogenous acetylcholine. The final pellet was overlayed with buffer and stoerd at -70° C. On the day of the assay, that pellet was thawed, resuspended in buffer and centrifuged at 18,000×g for 20 min. The pellet obtained was resuspended in buffer to a final concentration of approximately 5 mg protein/ml.
The binding of L-[^3 H]nicotine was measured using a 2 hr. incubation at 4° C. […] Nonspecific binding was determined by inclusion of 10 uM nonradioactive nicotine in the incubations.

[2] = test system: synaptosomes from the striatal area of rat brain; assay: Dopamine release from striatal synaptosomes; assay type: biochemical, rat (Sprague-Dawley); conditions: relative to (S)-(-)-nicotine
Description: Dopamine release was measured by preparing synaptosomes from the striatal area of rat brain obtained from Sprague-Dawley rats generally according to the procedures set forth by Nagy et al., J. Neurochem., Vol. 43, pp. 1114-1123 (1984). Striata from 4 rats were homogenized in 2 ml of 0.32M sucrose buffered with 5 mM HEPES (pH 7.5), using a glass-Teflon tissue grinder. The homogenate was diluted to 5 ml with additional homogenization solution and centrifuged at 1,000×g for 10 min. This procedure was repeated on the new pellet and the resulting supernatant was centrifuged at 12,000×g for 20 min. A 3 layer discontinuous Percoll gradient consisting of 16 percent, 10 percent and 7.5 percent Percoll in HEPES-buffered sucrose was made with the final pellet dispersed in the top layer. […] Using this method, 30 to 90 percent of the dopamine was taken up into the synaptosomes, as determined by scintillation counting following filtration through glass fiber filters soaked with 0.5 percent polyethyleneimine. […] After the addition of 0.2 ml of a solution containing various concentrations of ligand, the perfusate was collected into scintillation vials at 1 min. intervals and the dopamine release was quantified by scintillation counting. Peaks of radioactivity released above background were summed and the average basal release during that time was substracted from the total.

[3] = target: T1, muscle-like nicotinic receptors (human clonal line TE671/RD) (Homo sapiens, UniProt P02708+P07510+Q07001); assay type: cell-based; conditions: te671/rd cells
T1 construct: Intact cells on dishes were used for functional studies; endogenous in cells; host or cells: TE671/RD (human embryonal rhabdomyosarcoma)
T1 sequence (P02708 21-457): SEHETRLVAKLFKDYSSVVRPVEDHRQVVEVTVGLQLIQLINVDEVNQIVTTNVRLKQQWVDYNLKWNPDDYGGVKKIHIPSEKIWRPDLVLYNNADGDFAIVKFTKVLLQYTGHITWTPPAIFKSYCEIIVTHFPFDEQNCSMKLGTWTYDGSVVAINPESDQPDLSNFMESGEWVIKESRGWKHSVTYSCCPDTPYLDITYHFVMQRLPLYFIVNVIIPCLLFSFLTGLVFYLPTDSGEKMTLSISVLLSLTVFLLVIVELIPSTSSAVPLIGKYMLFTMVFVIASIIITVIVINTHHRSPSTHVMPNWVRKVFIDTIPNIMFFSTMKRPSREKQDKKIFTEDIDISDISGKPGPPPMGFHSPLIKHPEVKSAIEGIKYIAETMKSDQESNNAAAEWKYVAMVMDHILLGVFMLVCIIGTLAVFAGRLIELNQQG
T1 sequence (Q07001 22-517): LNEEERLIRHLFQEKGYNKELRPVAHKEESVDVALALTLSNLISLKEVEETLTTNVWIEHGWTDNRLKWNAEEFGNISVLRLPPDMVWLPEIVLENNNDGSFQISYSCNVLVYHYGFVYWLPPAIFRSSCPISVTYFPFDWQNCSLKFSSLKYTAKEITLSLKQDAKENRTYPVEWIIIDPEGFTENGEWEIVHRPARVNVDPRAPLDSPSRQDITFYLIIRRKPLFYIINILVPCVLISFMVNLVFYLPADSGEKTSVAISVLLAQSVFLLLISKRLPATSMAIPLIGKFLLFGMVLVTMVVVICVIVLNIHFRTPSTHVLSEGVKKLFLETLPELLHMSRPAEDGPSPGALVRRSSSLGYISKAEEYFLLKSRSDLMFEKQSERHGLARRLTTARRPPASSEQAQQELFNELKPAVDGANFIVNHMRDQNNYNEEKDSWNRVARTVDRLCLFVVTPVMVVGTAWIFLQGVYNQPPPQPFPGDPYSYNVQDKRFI
T1 sequence (P07510 23-517): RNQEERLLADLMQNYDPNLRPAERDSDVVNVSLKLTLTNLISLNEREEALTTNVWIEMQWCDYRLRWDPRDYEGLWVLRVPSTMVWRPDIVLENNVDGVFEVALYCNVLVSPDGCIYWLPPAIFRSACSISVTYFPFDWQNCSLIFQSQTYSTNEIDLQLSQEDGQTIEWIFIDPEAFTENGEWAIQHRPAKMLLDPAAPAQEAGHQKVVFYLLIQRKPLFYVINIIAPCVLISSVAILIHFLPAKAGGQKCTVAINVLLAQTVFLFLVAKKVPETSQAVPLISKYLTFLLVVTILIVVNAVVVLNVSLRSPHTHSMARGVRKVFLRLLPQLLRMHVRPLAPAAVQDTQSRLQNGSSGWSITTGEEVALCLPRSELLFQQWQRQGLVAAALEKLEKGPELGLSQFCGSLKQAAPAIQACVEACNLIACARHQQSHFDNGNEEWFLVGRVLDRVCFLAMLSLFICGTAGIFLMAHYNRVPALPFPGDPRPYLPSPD
Description: Dose-response curves were plotted and the concentration resulting in half maximal activation of specific ion flux through nicotinic receptors determined for human muscle and rat ganglionic preparations (EC50).
(§1) Intact cells on dishes were used for functional studies.
(§2) Specific ion efflux was determined as the difference in isotope efflux between total and non-specific efflux samples. Dose-response curves were plotted and the concentration resulting in half maximal activation of specific ion flux through nicotinic receptors determined for human muscle and rat ganglionic preparations (EC50).

[4] = target: T2, ganglionic-type neuronal nicotinic receptors (pheochromocytoma clonal line PC12) (Rattus norvegicus, UniProt P04757+P12392); assay type: cell-based; conditions: pc12 cells
T2 construct: Intact cells on dishes were used for functional studies; endogenous in cells; host or cells: PC12 (rat pheochromocytoma)
T2 sequence (P04757 26-499): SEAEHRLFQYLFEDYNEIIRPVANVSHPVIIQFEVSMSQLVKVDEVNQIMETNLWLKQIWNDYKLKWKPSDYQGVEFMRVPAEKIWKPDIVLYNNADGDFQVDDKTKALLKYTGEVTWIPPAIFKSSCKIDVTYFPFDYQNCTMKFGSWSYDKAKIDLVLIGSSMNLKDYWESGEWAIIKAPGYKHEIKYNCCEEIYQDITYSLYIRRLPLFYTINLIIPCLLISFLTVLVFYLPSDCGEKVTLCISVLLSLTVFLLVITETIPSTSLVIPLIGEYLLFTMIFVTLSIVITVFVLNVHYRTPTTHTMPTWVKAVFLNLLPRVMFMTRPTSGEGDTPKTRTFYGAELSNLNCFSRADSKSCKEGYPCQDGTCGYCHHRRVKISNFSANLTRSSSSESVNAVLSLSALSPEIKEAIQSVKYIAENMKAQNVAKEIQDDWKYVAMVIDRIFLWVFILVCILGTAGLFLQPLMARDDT
T2 sequence (P12392 21-495): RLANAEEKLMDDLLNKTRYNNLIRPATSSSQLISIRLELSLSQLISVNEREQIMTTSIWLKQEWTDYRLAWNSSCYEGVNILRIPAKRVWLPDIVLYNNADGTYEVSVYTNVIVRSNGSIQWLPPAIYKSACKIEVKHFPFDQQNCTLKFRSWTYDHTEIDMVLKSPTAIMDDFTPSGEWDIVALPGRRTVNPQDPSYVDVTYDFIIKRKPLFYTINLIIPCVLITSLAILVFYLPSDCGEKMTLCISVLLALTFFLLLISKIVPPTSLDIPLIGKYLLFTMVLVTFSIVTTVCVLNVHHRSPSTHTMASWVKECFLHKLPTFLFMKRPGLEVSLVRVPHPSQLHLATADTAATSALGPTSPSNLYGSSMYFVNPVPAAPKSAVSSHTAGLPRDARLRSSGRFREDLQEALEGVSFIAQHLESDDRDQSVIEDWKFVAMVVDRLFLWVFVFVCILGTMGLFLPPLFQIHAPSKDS
Description: as §1, §2

## CNCCCCc1cccnc1 [Sample No. 7, N-methyl-(3-pyridinyl)-buane-1-amine]
[1]
  Ki: 910 nM
[2]
  Dopamine Release Emax: 72 % nicotine
[3]
  Muscle Effect: 0 % nicotine
[4]
  Ganglion Effect: 31 % nicotine
